Measurements from publication PMC9749938, “Alkyltriphenylphosphonium turns naphthoquinoneimidazoles into potent membrane depolarizers against mycobacteria” (RSC Medicinal Chemistry, 2022).

Test system: inverted membrane vesicles of M. smegmatis mc^24517 overexpressing NDH2 (TB-ndh)
Test: NADH oxidation in inverted membrane vesicles, TB-ndh
Assay type: biochemical
Details: read-out: EC50 of activation of NADH oxidation, TB-ndh IMV

| Structure (SMILES) | EC50 |
| --- | --- |
| CCCCCCCCn1c2c([n+](CCCC)c1C)C(=O)c1ccccc1C2=O.[Br-] [Compound 45, reference compound] | 200 nM |
| Cc1nc2c(n1CCCCCCCCCCC[P+](c1ccccc1)(c1ccccc1)c1ccccc1)C(=O)c1ccccc1C2=O.[I-] [Compound 7] | 1400 nM |
| CCCCn1c2c([n+](C3CCC4(CCCCC4)CC3)c1C)C(=O)c1ccccc1C2=O.[Br-] [Compound 44, reference compound] | 3740 nM |
